# From patent publication US20080262019A1, “Optical Isomers of (+) and (-)-Trans-2,3,4,4A,5,9B-Hexahydro-2,8-Dimethyl-1H-Pyrido[4,3-B] Indole” (priority 2005, published 2008)
# “Also recorded” adds a separate entry of the source. Marks after values point to notes of the source that are not given here.
# Test system: male C57BL/6 mice
# Test: spontaneous orientation (patroling behavior) test in the closed cross maze
# Format: in vivo
# Settings: for F_PasN, M / F_PtrN, duration of the first patroling cycle (number of arm visits), M / L_TrnN, number of left turns, M / PatrlN, number of patrolling cycles, M / R_TrnN, number of right turns, M / S_PtrN, duration of the second patrolling cycle (number of arm visits), M / S_VisN, spontaneous stereotype behavior, M / rl_Ind, asymmetry index of turns, M / F_ChTm, latency of the first arm visit, M / F_GlTm, length of the first arm visit, M / T_ChTm, total time spent in the central compartment of the maze, M / T_GlTm, total time spent in the side arms of the maze, M: 1 hour after treatment; for nootropic effect (decrease in F_PtrN and S_PtrN, increase in PatrlN): single administration into stomach
# Procedure: Preclinical evaluation of nootropic and sedative activity of the compounds was performed in mice using spontaneous orientation (patroling behavior) test in the cross maze, that allows simultaneous evaluation of nootropic, tranquilizing, sedative and psychostimulating effects of the compounds.
# For evaluation of the exploratory behavior of the animals the closed cross maze test was used (Salimov R. M., Evaluation of the ordering of the way in the process of exploratory behavior in mice. Journal of the Higher Nervous Activity, 1988, v. 38, #3, pp. 569-571).
# The mouse was placed in the central compartment of the maze and the sequence of its visits in different compartments was recorded semi-automatically.
# Test was completed after 12 visits (Salimov R. M., Evaluation of the ordering of the way in the process of exploratory behavior in mice. Journal of the Higher Nervous Activity, 1988, v.38, #3, pp. 569-571; Salimov R. M., McBride W. J., Sinclair J. D., Lumeng L., Li T. -K. Performance in the cross-maze and slip funnel tests of four pairs of rat lines selectively bred for divergent alcohol drinking behavior. Addict. Biol. 1996a, 1:273-280; Salimov, R. M., McBride, W. J., McKenzie, D. L., Lumeng, L. and Li, T. -K. Ethanol consumption by adolescent alcohol-preferring P rats on subsequent behavioural performance in the cross-maze and slip funnel tests. Alcohol. 1996b, 13: c. 297-300).
# Subsequent computerized analysis of the record singled out a number of behavioral characteristics. The most informative among them were:
# 1) The total time spent by the animal in the central compartment of the maze—T_ChTm, and the total time spent by the animal in the side arms of the maze—T_GlTm.
# These variables reflect the level of the motor activity of the animal and also reflect the intensity of their exploratory drive for the new environment. […] Alcohol 20:61-68; 2000; Markina N. V., Salimov R. M., Poletaeva I. I. Exploratory behaviour of F2 crosses of mouse lines having selected for different brain weight: A multivariate analysis. Prog. Neuro-Psychopharmacol. Biol. Psychiat. 2004, 28(3):583-589).
# 2) The latency (variable F_ChTm) and the length of the first arm visit (F_GlTm).
# These variables reflect the level of anxiety of the animal in the new environment and can be used for the evaluation of the tranquilizing (anxiolythic) effect of the drug (Salimov, R. M. Different behavioral patterns related to alcohol use in rodents: A factor analysis. Alcohol. 1999, 17:157-162).
# 3) The duration of the first patroling cycle—variable F_PtrN, and the duration of the second patrolling cycle—variable S_PtrN.
# These variables are measured by the number of the animal's visits in the maze arms, performed by the animal for the exploration of the environment before it visits all 4 arms at least once (Salimov R. M., Evaluation of the ordering of the way in the process of exploratory behavior in mice. Journal of the Higher Nervous Activity, 1988, v.38, #3, pp. 569-571; Salimov R. M., McBride W. J., Sinclair J. D., Lumeng L., Li T. -K. Performance in the cross-maze and slip funnel tests of four pairs of rat lines selectively bred for divergent alcohol drinking behavior.
# 4) The number of patrolling cycles—variable PatriN, executed during the time of the experiment, as one of the characteristics of the efficiency of exploratory behavior. The more patroling cycles were accomplished, the more “systematic” and efficient was the exploration of the maze.
# Variables from groups 3 and 4 can be used for the evaluation of the nootropic activity of the drugs.
# 5) The number of right turns—variable R_TrnN, and the number of left turns—variable L_TrN, executed by the animals moving from one arm of the maze to the other, as well as asymmetry index—variable rl_Ind—of these turns:
# rl_Ind ═R_TrnN*(R_TrnN+L_TrnN)^−1
# 6) The spontaneous stereotype behavior—variable S_VisN, that characterizes animal's visiting two arms of the maze in turn more than two times in a row. […]
# [1] = 300 mg/kg, single dose into stomach, N = 15
# [2] = 300 mg/kg, single dose into stomach, N = 15, in s (unit assumed)
# [3] = 100 mg/kg, single dose into stomach, N = 15
# [4] = 100 mg/kg, single dose into stomach, N = 15, in s (unit assumed)
# [5] = 2.5 mg/kg, single dose into stomach, N = 12
# [6] = 2.5 mg/kg, single dose into stomach, N = 12, in s (unit assumed)
# [7] = 5.0 mg/kg, single dose into stomach, N = 12
# [8] = 5.0 mg/kg, single dose into stomach, N = 12, in s (unit assumed)
# [9] = single administration, 2.5 and 5.0 mg/kg doses
# [10] = 1 mg/kg, single dose, N = 15, in s (unit assumed)
# [11] = single administration 0.5 mg/kg
smiles,measurement,setting,value
"NC(=O)CN1CCCC1=O [Piracetam, reference compound]","F_PasN, M",[1],4.1
same,"F_PtrN, duration of the first patroling cycle (number of arm visits), M",[1],4.5*
same,"L_TrnN, number of left turns, M",[1],4.5*
same,"PatrlN, number of patrolling cycles, M",[1],2.1
same,"R_TrnN, number of right turns, M",[1],3.4*
same,"S_PtrN, duration of the second patrolling cycle (number of arm visits), M",[1],5.4
same,"S_VisN, spontaneous stereotype behavior, M",[1],4.3*
same,"rl_Ind, asymmetry index of turns, M",[1],0.4*
same,"F_ChTm, latency of the first arm visit, M",[2],11.6
same,"F_GlTm, length of the first arm visit, M",[2],25.0
same,"T_ChTm, total time spent in the central compartment of the maze, M",[2],46.1
same,"T_GlTm, total time spent in the side arms of the maze, M",[2],135.1
same,"nootropic effect (decrease in F_PtrN and S_PtrN, increase in PatrlN)",300 mg/kg,nootropic effect
"CN(C)CCOC(=O)COc1ccc(Cl)cc1 [Meclofenaxate, reference compound]","F_PasN, M",[3],3.6
same,"F_PtrN, duration of the first patroling cycle (number of arm visits), M",[3],4.8*
same,"L_TrnN, number of left turns, M",[3],4.5
same,"PatrlN, number of patrolling cycles, M",[3],2.5*
same,"R_TrnN, number of right turns, M",[3],3.8
same,"S_PtrN, duration of the second patrolling cycle (number of arm visits), M",[3],4.6*
same,"S_VisN, spontaneous stereotype behavior, M",[3],3.7
same,"rl_Ind, asymmetry index of turns, M",[3],0.4
same,"F_ChTm, latency of the first arm visit, M",[4],15.4
same,"F_GlTm, length of the first arm visit, M",[4],29.1
same,"T_ChTm, total time spent in the central compartment of the maze, M",[4],40.5
same,"T_GlTm, total time spent in the side arms of the maze, M",[4],145.4
same,"nootropic effect (decrease in F_PtrN and S_PtrN, increase in PatrlN)",100 mg/kg,nootropic effect
"Cc1ccc2c(c1)[C@H]1CN(C)CC[C@@H]1N2 [Trans-(+)-isomer, (+)-trans-2,8-dimethyl-2,3,4,4a,5,9b-hexahydro-1H-pyrido[4,3-b]indole]","F_PtrN, duration of the first patroling cycle (number of arm visits), M",[5],5.75
same,"L_TrnN, number of left turns, M",[5],4.17
same,"PatrlN, number of patrolling cycles, M",[5],2.00
same,"R_TrnN, number of right turns, M",[5],2.67
same,"S_PtrN, duration of the second patrolling cycle (number of arm visits), M",[5],4.55*^+
same,"S_VisN, spontaneous stereotype behavior, M",[5],5.75
same,"T_GlTm, total time spent in the side arms of the maze, M",[5],271.98*^+
same,"rl_Ind, asymmetry index of turns, M",[5],0.39
same,"F_ChTm, latency of the first arm visit, M",[6],9.18
same,"F_GlTm, length of the first arm visit, M",[6],22.91
same,"T_ChTm, total time spent in the central compartment of the maze, M",[6],53.27*
same,"F_PtrN, duration of the first patroling cycle (number of arm visits), M",[7],6.30
same,"L_TrnN, number of left turns, M",[7],4.82
same,"PatrlN, number of patrolling cycles, M",[7],1.64
same,"R_TrnN, number of right turns, M",[7],3.09
same,"S_PtrN, duration of the second patrolling cycle (number of arm visits), M",[7],5.43^+
same,"S_VisN, spontaneous stereotype behavior, M",[7],5.55
same,"T_GlTm, total time spent in the side arms of the maze, M",[7],391.25*^+
same,"rl_Ind, asymmetry index of turns, M",[7],0.38
same,"F_ChTm, latency of the first arm visit, M",[8],24.60*
same,"F_GlTm, length of the first arm visit, M",[8],43.48*
same,"T_ChTm, total time spent in the central compartment of the maze, M",[8],58.27*
same,sedative effect compared with the other optic isomer,"(+)- versus (−)-trans isomer, 2.5 and 5.0 mg/kg",higher sedative effect
same,"nootropic effect (improvement in the patrolling behavior, decrease in S_PtrN)",[9],nootropic effect
same,sedative effect (reduction in the speed of movement in the maze; increase in T_ChTm and T_GlTm),[9],sedative effect
same,"spontaneous stereotype behavior (variable S_VisN), change",[9],did not demonstrate this ability
"O=C(CCCN1CCC(O)(c2ccc(Cl)cc2)CC1)c1ccc(F)cc1 [Haloperidol, reference compound]","F_PtrN, duration of the first patroling cycle (number of arm visits), M","1 mg/kg, single dose, N = 15",6.09
same,"L_TrnN, number of left turns, M","1 mg/kg, single dose, N = 15",3.36
same,"PatrlN, number of patrolling cycles, M","1 mg/kg, single dose, N = 15",1.91
same,"R_TrnN, number of right turns, M","1 mg/kg, single dose, N = 15",3.91
same,"S_PtrN, duration of the second patrolling cycle (number of arm visits), M","1 mg/kg, single dose, N = 15",5.20
same,"S_VisN, spontaneous stereotype behavior, M","1 mg/kg, single dose, N = 15",2.35*
same,"rl_Ind, asymmetry index of turns, M","1 mg/kg, single dose, N = 15",0.54
same,"F_ChTm, latency of the first arm visit, M",[10],19.30*
same,"F_GlTm, length of the first arm visit, M",[10],31.85*
same,"T_ChTm, total time spent in the central compartment of the maze, M",[10],100.65*
same,"T_GlTm, total time spent in the side arms of the maze, M",[10],284.67*
same,sedative effect (reduction in the speed of movement in the maze; increase in T_ChTm and T_GlTm),[11],sedative effect
same,"spontaneous stereotype behavior (variable S_VisN), change",[11],decrease
"Cc1ccc2c(c1)[C@@H]1CN(C)CC[C@H]1N2 [Trans-(−)-isomer, (−)-trans-2,3,4,4a,5,9b-hexahydro-2,8-dimethyl-1H-pyrido[4,3-b]indole]","F_PtrN, duration of the first patroling cycle (number of arm visits), M",[5],6.10
same,"L_TrnN, number of left turns, M",[5],3.00
same,"PatrlN, number of patrolling cycles, M",[5],1.67
same,"R_TrnN, number of right turns, M",[5],3.08
same,"S_PtrN, duration of the second patrolling cycle (number of arm visits), M",[5],4.43*^+
same,"S_VisN, spontaneous stereotype behavior, M",[5],6.33
same,"T_GlTm, total time spent in the side arms of the maze, M",[5],166.78*^+
same,"rl_Ind, asymmetry index of turns, M",[5],0.50
same,"F_ChTm, latency of the first arm visit, M",[6],10.75
same,"F_GlTm, length of the first arm visit, M",[6],20.27
same,"T_ChTm, total time spent in the central compartment of the maze, M",[6],33.10
same,"F_PtrN, duration of the first patroling cycle (number of arm visits), M",[7],5.42
same,"L_TrnN, number of left turns, M",[7],3.83
same,"PatrlN, number of patrolling cycles, M",[7],2.08
same,"R_TrnN, number of right turns, M",[7],5.08*
same,"S_PtrN, duration of the second patrolling cycle (number of arm visits), M",[7],5.00^+
same,"S_VisN, spontaneous stereotype behavior, M",[7],4.17*
same,"T_GlTm, total time spent in the side arms of the maze, M",[7],238.16*^+
same,"rl_Ind, asymmetry index of turns, M",[7],0.58
same,"F_ChTm, latency of the first arm visit, M",[8],8.33
same,"F_GlTm, length of the first arm visit, M",[8],33.62*
same,"T_ChTm, total time spent in the central compartment of the maze, M",[8],42.23*
same,"nootropic effect (improvement in the patrolling behavior, decrease in S_PtrN)",[9],nootropic effect
same,sedative effect (reduction in the speed of movement in the maze; increase in T_ChTm and T_GlTm),[9],sedative effect
same,"spontaneous stereotype behavior (variable S_VisN), change","single administration, 2.5 and 5.0 mg/kg doses, listed as (−)-trans-2,8-dimethyl-2,3,4,4a,5,9b-hexahydro-1H-pyrido[4,3-b]indole",significantly decreased; also recorded: decrease
